ChEMBL document CHEMBL1137582, “Quinazoline and benzimidazole MCH-1R antagonists” (Bioorg Med Chem Lett, 2007)
Each block holds one compound with its values, some of them ahead of it. The source made the active and inactive calls. No cut-off for these calls is given here.

How the values were obtained:
[1] = target: T1, Melanin-concentrating hormone receptor 1 (Homo sapiens, UniProt Q99705); test: Displacement of 125I-[Phe13,Tyr19]-MCH from MCH-R1 expressing cell membranes
[2] = target: T1, Melanin-concentrating hormone receptor 1; test: Inhibition of MCH-mediated calcium influx into MCH-R1 expressing cells; assay type: functional
[3] = target: T1, Melanin-concentrating hormone receptor 1; test: Inhibition of 125I-[Phe13,Tyr19]-MCH binding to MCH-R1 expressing cell membranes at 1uM
D(2) dopamine receptor [4] = target: T2, D(2) dopamine receptor (Homo sapiens, UniProt P14416); test: Inhibition of D2(L) at 10uM
[5] = target: 5-hydroxytryptamine receptor 2A (Homo sapiens) (UniProt P28223); test: Inhibition of 5HT2A at 10uM
[6] = target: T3, 5-hydroxytryptamine receptor 2C (Homo sapiens) (UniProt P28335); test: Inhibition of 5HT2C at 10uM
T3 sequence (whole entry): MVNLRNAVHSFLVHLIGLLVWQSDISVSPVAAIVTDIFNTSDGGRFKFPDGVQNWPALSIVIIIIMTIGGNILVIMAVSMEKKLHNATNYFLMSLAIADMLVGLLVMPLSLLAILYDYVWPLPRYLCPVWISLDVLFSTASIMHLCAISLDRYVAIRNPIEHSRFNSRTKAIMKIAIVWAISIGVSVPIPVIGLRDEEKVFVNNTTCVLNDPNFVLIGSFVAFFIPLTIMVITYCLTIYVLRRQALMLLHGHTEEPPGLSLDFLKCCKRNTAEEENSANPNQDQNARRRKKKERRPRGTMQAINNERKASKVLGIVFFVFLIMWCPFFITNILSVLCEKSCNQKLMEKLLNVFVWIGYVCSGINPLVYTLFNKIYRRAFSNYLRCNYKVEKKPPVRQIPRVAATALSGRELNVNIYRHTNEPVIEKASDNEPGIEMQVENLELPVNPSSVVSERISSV

[7] = target: 5-hydroxytryptamine receptor 2B (Homo sapiens, UniProt P41595); test: Inhibition of 5HT2B
Cytochrome P450 2D6 = Cytochrome P450 2D6 (Homo sapiens, UniProt P10635); test: Inhibition of human CYP2D6 at 1uM; assay type: ADME
Cytochrome P450 3A4 = Cytochrome P450 3A4 (Homo sapiens, UniProt P08684); test: Inhibition of human CYP3A4 at 1uM; assay type: ADME
Cytochrome P450 1A2 = target: T4, Cytochrome P450 1A2 (Homo sapiens, UniProt P05177); test: Inhibition of human CYP1A2 at 1uM; assay type: ADME
T4 sequence (P05177 whole entry): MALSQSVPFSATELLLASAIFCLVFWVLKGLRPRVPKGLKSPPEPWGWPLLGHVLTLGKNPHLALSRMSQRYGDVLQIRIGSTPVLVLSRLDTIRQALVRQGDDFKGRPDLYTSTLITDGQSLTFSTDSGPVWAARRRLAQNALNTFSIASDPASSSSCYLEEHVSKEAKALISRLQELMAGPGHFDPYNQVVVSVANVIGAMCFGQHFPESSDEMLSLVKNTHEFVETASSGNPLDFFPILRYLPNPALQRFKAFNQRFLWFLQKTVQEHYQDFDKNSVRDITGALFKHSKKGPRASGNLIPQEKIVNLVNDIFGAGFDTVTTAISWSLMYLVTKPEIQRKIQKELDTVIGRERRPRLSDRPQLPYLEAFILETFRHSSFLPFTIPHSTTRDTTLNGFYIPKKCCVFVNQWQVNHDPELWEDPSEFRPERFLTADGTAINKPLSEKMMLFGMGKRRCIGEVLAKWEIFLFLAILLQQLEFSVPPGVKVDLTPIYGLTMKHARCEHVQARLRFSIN

Cytochrome P450 2C9 = Cytochrome P450 2C9 (Homo sapiens, UniProt P11712); test: Inhibition of human CYP2C9 at 1uM; assay type: ADME
Cytochrome P450 2C19 = Cytochrome P450 2C19 (Homo sapiens, UniProt P33261); test: Inhibition of human CYP2C19 at 1uM; assay type: ADME
[8] = target: T5, Melanin-concentrating hormone receptor 2 (Homo sapiens, UniProt Q969V1); test: Inhibition of MCH-R2
[9] = Solubility at pH7.4; assay type: physicochemical; conditions: buffer, pH 7.4
[10] = target: T6, Adrenergic receptor alpha-1 (Homo sapiens, UniProt P35348+P25100+P35368); test: Inhibition of adrenergic alpha-1 receptor; assay type: protein assay
T6 sequence (P35348 whole entry): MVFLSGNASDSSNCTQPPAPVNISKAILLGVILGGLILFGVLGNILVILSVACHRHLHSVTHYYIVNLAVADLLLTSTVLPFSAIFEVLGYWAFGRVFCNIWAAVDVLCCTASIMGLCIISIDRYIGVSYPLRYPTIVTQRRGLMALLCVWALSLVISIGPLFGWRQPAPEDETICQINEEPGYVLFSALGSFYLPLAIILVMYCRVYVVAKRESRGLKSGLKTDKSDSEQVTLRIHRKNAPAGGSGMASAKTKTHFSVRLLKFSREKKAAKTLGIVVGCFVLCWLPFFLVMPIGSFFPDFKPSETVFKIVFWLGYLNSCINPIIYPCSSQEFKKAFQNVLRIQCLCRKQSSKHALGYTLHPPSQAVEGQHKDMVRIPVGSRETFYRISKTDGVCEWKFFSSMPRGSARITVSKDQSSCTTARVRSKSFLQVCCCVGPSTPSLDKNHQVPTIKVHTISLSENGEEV
T6 sequence (P25100 whole entry): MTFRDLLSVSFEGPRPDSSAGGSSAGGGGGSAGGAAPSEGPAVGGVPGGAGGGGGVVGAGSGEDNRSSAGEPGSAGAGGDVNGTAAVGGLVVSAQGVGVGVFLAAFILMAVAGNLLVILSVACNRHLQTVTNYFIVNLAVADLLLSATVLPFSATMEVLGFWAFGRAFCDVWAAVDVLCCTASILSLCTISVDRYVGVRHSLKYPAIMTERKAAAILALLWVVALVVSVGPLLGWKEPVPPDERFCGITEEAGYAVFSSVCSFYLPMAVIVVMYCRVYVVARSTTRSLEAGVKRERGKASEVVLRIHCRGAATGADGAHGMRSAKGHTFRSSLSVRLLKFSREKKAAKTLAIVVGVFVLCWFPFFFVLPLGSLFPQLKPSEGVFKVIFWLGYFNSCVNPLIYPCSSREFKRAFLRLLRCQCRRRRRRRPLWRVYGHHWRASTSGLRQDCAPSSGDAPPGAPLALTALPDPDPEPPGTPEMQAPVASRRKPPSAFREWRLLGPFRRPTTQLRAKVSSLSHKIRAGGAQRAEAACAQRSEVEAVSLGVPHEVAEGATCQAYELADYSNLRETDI
T6 sequence (P35368 whole entry): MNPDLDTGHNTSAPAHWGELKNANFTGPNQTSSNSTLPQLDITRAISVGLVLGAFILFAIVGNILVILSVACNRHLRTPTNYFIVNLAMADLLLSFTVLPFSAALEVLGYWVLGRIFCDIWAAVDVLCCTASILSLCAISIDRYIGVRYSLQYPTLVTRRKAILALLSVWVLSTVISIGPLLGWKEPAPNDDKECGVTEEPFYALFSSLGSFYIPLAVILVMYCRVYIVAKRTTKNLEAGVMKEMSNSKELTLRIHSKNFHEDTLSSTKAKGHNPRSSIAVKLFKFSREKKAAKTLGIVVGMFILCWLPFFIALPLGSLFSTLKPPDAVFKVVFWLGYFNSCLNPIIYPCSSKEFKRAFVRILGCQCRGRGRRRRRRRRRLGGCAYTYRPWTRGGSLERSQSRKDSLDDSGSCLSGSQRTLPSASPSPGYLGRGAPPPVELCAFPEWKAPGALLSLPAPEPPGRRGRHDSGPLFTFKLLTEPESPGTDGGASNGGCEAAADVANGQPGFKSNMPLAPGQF

D(2) dopamine receptor [11] = target: T2, D(2) dopamine receptor; test: Inhibition of D2(L)
[12] = target: Voltage-gated inwardly rectifying potassium channel KCNH2 (Homo sapiens, UniProt Q12809); test: Inhibition of hERG in patch-clamp assay; assay type: toxicity
[13] = target: T5, Melanin-concentrating hormone receptor 2; test: Inhibition of MCH-R2 at 10uM
[14] = target: Adrenergic receptor alpha-1 (Homo sapiens) (UniProt P35348+P25100+P35368); test: Inhibition of adrenergic alpha-1 receptor at 10uM; assay type: protein assay

T1 sequence (Q99705 whole entry): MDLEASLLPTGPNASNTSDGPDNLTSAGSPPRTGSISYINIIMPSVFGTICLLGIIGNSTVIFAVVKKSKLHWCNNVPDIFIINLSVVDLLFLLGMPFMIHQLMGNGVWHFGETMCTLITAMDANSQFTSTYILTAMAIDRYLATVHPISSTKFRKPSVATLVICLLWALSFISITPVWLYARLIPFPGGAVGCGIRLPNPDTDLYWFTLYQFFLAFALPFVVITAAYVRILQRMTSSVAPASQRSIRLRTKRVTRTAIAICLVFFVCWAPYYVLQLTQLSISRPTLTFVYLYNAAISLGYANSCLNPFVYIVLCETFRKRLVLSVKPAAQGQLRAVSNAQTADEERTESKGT
5-hydroxytryptamine receptor 2B, sequence (P41595 whole entry): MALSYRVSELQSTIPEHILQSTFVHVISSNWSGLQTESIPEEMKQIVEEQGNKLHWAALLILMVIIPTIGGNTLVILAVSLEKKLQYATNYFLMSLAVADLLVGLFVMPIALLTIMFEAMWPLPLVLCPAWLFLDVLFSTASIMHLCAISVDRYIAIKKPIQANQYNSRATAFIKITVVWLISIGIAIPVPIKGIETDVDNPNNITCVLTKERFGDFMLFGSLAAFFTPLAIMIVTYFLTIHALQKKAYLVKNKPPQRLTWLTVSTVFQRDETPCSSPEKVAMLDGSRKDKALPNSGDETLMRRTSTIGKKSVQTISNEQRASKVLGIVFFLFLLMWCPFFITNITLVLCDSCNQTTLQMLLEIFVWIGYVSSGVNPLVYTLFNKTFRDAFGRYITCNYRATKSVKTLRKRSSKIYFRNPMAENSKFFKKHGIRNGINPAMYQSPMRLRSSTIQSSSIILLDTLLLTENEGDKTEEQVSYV
5-hydroxytryptamine receptor 2A (Homo sapiens), sequence (P28223 whole entry): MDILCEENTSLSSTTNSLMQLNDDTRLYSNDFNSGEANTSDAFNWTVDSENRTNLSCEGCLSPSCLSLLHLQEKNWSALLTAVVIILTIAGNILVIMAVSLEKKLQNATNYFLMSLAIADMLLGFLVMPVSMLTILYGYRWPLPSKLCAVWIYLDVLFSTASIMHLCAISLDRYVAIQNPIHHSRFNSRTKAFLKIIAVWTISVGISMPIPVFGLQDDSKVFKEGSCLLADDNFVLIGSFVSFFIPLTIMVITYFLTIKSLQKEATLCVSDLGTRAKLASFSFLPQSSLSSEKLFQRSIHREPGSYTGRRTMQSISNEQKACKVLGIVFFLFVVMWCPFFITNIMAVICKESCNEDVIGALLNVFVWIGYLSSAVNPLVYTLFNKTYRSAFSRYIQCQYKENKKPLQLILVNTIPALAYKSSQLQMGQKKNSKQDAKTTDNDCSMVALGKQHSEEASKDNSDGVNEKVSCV
Cytochrome P450 3A4, sequence (P08684 whole entry): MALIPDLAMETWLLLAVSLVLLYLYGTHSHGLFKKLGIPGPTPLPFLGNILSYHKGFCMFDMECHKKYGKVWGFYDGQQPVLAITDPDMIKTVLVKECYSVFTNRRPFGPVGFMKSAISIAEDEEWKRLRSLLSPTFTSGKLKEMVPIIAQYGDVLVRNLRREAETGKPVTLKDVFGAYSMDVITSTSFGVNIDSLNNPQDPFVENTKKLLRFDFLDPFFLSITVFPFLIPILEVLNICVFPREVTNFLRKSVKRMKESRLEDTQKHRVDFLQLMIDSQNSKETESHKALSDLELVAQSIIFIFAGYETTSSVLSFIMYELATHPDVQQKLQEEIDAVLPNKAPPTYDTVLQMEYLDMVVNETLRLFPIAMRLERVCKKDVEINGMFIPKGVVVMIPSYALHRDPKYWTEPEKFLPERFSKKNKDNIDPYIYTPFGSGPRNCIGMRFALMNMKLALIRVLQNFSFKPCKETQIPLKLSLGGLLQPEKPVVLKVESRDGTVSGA
Cytochrome P450 2C19, sequence (P33261 whole entry): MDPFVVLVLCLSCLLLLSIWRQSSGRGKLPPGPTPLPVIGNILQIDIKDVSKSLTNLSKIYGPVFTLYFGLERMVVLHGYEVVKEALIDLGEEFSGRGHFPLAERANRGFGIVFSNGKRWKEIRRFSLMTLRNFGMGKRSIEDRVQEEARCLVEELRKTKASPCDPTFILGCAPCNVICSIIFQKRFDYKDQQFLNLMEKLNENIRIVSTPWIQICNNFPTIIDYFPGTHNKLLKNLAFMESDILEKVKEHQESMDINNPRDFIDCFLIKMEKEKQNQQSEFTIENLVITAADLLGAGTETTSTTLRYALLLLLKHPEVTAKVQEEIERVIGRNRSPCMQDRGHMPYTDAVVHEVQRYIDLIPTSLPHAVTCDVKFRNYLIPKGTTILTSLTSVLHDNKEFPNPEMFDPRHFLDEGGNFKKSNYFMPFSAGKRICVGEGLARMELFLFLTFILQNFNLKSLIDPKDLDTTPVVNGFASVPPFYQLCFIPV
Cytochrome P450 2C9, sequence (P11712 whole entry): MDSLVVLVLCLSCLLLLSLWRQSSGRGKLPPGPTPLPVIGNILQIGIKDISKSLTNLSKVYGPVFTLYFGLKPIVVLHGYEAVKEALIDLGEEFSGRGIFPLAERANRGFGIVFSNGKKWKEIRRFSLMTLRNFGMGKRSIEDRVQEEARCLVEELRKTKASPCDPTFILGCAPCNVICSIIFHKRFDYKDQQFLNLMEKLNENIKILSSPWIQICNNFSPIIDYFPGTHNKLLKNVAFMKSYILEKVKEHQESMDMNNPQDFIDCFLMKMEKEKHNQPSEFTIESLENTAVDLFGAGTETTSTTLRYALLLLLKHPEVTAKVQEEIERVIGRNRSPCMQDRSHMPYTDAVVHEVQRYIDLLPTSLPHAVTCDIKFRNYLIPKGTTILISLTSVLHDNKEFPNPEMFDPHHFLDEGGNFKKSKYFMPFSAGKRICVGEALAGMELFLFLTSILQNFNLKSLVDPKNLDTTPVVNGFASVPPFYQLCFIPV
T2 sequence (P14416 whole entry): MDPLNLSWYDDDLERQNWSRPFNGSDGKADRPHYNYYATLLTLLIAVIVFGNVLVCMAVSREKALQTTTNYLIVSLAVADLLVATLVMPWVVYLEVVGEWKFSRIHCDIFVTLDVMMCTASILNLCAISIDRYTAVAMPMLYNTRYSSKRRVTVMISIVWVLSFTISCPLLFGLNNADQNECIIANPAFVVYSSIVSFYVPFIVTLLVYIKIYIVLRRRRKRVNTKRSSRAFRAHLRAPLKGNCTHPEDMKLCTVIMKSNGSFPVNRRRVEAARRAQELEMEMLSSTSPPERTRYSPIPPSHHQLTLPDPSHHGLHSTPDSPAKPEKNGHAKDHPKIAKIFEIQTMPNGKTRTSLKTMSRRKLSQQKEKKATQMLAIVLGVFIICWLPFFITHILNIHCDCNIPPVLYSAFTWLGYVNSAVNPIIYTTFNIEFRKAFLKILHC
T5 sequence (Q969V1 whole entry): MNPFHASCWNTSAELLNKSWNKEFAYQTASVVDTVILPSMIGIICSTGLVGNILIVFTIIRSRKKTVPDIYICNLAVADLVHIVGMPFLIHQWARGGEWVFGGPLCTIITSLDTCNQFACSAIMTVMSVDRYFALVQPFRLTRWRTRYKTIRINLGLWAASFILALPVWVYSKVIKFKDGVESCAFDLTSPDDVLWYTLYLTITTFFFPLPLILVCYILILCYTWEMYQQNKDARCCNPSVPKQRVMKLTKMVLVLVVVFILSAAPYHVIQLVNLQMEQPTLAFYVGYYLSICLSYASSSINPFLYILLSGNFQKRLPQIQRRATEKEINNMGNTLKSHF
Cytochrome P450 2D6, sequence (P10635 whole entry): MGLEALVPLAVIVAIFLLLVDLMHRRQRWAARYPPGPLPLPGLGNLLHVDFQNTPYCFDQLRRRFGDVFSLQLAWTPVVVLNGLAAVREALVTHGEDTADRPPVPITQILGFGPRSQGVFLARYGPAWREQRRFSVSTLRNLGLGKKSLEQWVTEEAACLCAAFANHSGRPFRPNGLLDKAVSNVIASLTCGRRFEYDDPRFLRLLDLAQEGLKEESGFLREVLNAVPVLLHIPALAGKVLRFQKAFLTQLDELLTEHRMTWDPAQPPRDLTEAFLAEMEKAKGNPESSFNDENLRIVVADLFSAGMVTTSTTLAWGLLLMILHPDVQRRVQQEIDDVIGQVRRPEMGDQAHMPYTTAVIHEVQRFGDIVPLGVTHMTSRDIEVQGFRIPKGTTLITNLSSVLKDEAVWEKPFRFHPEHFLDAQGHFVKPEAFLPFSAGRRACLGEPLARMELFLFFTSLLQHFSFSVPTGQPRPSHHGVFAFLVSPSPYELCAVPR

Structure (SMILES): COc1ccc(OCC(=O)Nc2ccc3nc(N4CCCC4)nc(C)c3c2)cc1
IC50 [1]: 0.39 µM
IC50 [2]: 0.041 µM

Structure (SMILES): O=C(COc1ccc(Cl)cc1)Nc1ccc2nc(N3CCOCC3)ccc2c1
IC50 [1]: 0.961 µM

Structure (SMILES): O=C(COc1ccc(C(F)(F)F)cc1)Nc1ccc2nc(N3CCOCC3)cnc2c1
inhibition [3]: inactive

Structure (SMILES): O=C(COc1ccc(Cl)cc1)Nc1ccc2nc(N3CCOCC3)cnc2c1
inhibition [3]: inactive

Structure (SMILES): Cc1nc(N(C)CCN(C)C)nc2ccc(NC(=O)COc3ccc(C(F)(F)F)cc3)cc12
IC50 [1]: 0.26 µM
IC50 [2]: 0.164 µM

Structure (SMILES): Cc1nc(N2CCCC2)nc2ccc(NC(=O)COc3cccc(Cl)c3)cc12
Inhibition [3]: 7%

Structure (SMILES): Cc1nc(N2CCCC2)nc2ccc(NC(=O)COc3ccccc3Cl)cc12
IC50 [1]: 1.93 µM

Structure (SMILES): Cc1nc(N2CCCC2)nc2ccc(NC(=O)COc3ccc(Cl)cc3)cc12
IC50 (D(2) dopamine receptor [11]): > 100 µM
inhibition [5]: 0%
inhibition [6]: 39%
IC50 [12]: 10 µM
IC50 [7]: 1.9 µM
Inhibition (Cytochrome P450 2D6): Not Active
Inhibition (Cytochrome P450 3A4): Not Active
Inhibition (Cytochrome P450 1A2): Not Active
Inhibition (Cytochrome P450 2C9): Not Active
Inhibition (Cytochrome P450 2C19): Not Active
IC50 [1]: 0.25 µM
IC50 [2]: 0.058 µM
inhibition [13]: 2%
inhibition [14]: 28%

Other lines, results leading:

IC50 [1]: 0.07 µM
IC50 [2]: 0.101 µM
Structure (SMILES): CC(C)Nc1nc2ccc(NC(=O)COc3ccc(C(F)(F)F)cc3)cc2n1C

IC50 [1]: 0.165 µM
IC50 [2]: 0.1 µM
Structure (SMILES): Cc1nc(N2CCCC2)nc2ccc(NC(=O)COc3ccc(C(F)(F)F)cc3)cc12

IC50 [1]: 0.015 µM
Structure (SMILES): Cc1cc(N2CCCC2)nc2ccc(NC(=O)COc3ccc(C(F)(F)F)cc3)cc12

IC50 [1]: 0.035 µM
IC50 [2]: 0.009 µM
Structure (SMILES): O=C(COc1ccc(C(F)(F)F)cc1)Nc1ccc2nc(N3CCCC3)[nH]c2c1

IC50 [1]: 0.172 µM
Structure (SMILES): O=C(COc1ccc(C(F)(F)F)cc1)Nc1ccc2nc(N3CCOCC3)ccc2c1

inhibition (D(2) dopamine receptor [4]): 19%
inhibition [5]: 22%
inhibition [6]: 7%
IC50 [7]: 1.5 µM
Inhibition (Cytochrome P450 2D6): Not Active
Inhibition (Cytochrome P450 3A4): Not Active
Inhibition (Cytochrome P450 1A2): Not Active
Inhibition (Cytochrome P450 2C9): Not Active
Inhibition (Cytochrome P450 2C19): Not Active
IC50 [1]: 0.025 µM
IC50 [2]: 0.028 µM
IC50 [8]: > 30 µM
solubility [9]: > 1000 µg/mL
IC50 [10]: 27 µM
Structure (SMILES): CN(C)CCN(C)c1nc2ccc(NC(=O)COc3ccc(C(F)(F)F)cc3)cc2n1C

IC50 [1]: 0.04 µM
IC50 [2]: 0.009 µM
Structure (SMILES): Cn1c(N2CCCC2)nc2ccc(NC(=O)COc3ccc(C(F)(F)F)cc3)cc21
